Results as given in patent US9624247B2, “Pyrazolo-pyrrolidin-4-one derivatives as bet inhibitors and their use in the treatment of disease” (NOVARTIS AG, priority 2013, dated 2017).

Legend:
[1] = molecular target: BRD3 (His-Brd3(20-477)) (Homo sapiens (Human), UniProt Q15059); test: TR-FRET in-vitro binding assay for BRD3; details: acetyl-histone H4 peptide
Procedure: (§1) TR-FRET In-Vitro Binding Assays for BRD2, BRD3, and BRD4:
All assays were performed in 384 well microtiter plates. Each assay plate contained 8-point serial dilutions for 40 test compounds, plus 16 high- and 16 low controls. Liquid handling and incubation steps were done on an Innovadyne Nanodrop Express equipped with a robotic arm (Thermo CatX, Perkin Elmer/Caliper Twister II) and an incubator (Liconic STX40, Thermo Cytomat 2C450). The assay plates were prepared by addition of 50 nl per well of compound solution in 90% DMSO HummingBird nanodispenser (Zinsser Analytic). […] Reactions were incubated at 30° C. for 35 minutes. […] After 35 minutes incubation at 30° C., plates were measured in a Perkin Elmer EnVision multilabel reader.
(§2) Preparation of Compound Dilutions
(§3) Test compounds were dissolved in DMSO (10 mM) and transferred into 1.4 mL flat bottom or V-shaped Matrix tubes carrying a unique 2D matrix. The stock solutions were stored at […] if not used immediately. For the test procedure the vials were defrosted and identified by a scanner whereby a working sheet was generated that guided the subsequent working steps. Compound dilutions were made in 96 well plates. This format enabled the assay of maximally 40 individual test compounds at 8 concentrations (single points) including 4 reference compounds, if desired (known BET inhibitors from the prior art, for this and other assays of the type disclosed herein). The dilution protocol included the production of “pre-dilution plates”, “master plates” and “assay plates”.
(§4) Pre-dilution plates: 96 polypropylene well plates were used as pre-dilution plates. A total of 4 pre-dilution plates were prepared including 10 test compounds each on the plate positions A1-A10, one standard compound at A11 and one DMSO control at A12. All dilution steps were done on a HamiltonSTAR robot.
(§5) These plates were used directly for the assay which was performed in a total volume of 13.55 μL.

[2] = tested on: THP-1 cells; test: Cell growth inhibition assay (CellTiter-Glo), THP-1; assay type: cell-based, human; details: THP-1, 4 days; for GI50: Homo sapiens, 96 h, half-maximal growth inhibition; for THP-1 TGI: total growth inhibition
Procedure: (§6) Cell Growth Inhibition Assay
(§7) The human leukemia cell lines MV-4-11, THP-1 and K-562 were employed to characterize the effect of BET inhibitors on cellular proliferation and viability. Cells were obtained from the American Type Culture Collection (ATCC) and cultured at 37° C. in a humidified 5% CO2 incubator in the following media: MV-4-11: DMEM high glucose (Animed #1-26F01-I), 10% FCS (Animed #2-01F26-I), 4 mM L-Glutamine (Animed #5-10K50), 1 mM Sodium Pyruvate (Animed #G03625P), lx Penicillin-Streptomycin (Animed #F12478P); K-562: Iscove's MEM (Animed #1-28F16-I), 10% FCS (Animed #2-01F26-I), 4 mM L-Glutamine (Animed #5-10K50), 1× Penicillin-Streptomycin (Animed #F12478P); THP-1: RPMI-1640 (Animed #1-41F01-I), 10% FCS (Animed #2-01F26-I), 2 mM L-Glutamine (Animed #5-10K50), 10 mM HEPES (Animed #5-31F100), 1 mM Sodium Pyruvate (Animed #G03625P), 1× Penicillin-Streptomycin (Animed #F12478P). The AML lines MV-4-11 and THP-1 are very sensitive to BET inhibitors and show massive cell death upon BET inhibition (Zuber et al., Nature, 478 (2011), 524-8). Compound-mediated suppression of cell proliferation/viability was assessed by quantification of cellular ATP levels using the CellTiter-Glo (CTG) reagent (Promega). Briefly, cells were seeded in 20 μl fresh medium into 384-well plates, followed by addition of 5 μl medium containing compound dilutions at 5-fold their final intended concentration. Dose-response effects were assessed by 3-fold serial dilutions of the test compound, starting at 10 μM. Following incubation of the cells for 4 days at 37° C. and 5% CO2, the effect of inhibitors on cell viability was quantified following addition of 20 μl CTG and luminescence quantification (integration time: 100 ms) as per vendor manual, using a correspondingly equipped Tecan M200 multi-mode platereader (TECAN, Switzerland). For data analysis, the assay background value determined in wells containing medium, but no cells, was subtracted from all data points. To enable differentiation of cytotoxic from cytostatic compounds, the number of viable cells is assessed relative to that observed at the time of compound addition using a separate cell plate (day 0). The effect of a particular test compound concentration on cell proliferation/viability is expressed as percentage of the background- and day 0-corrected luminescence reading obtained for cells treated with vehicle only (DMSO, 0.1% final concentration), which is set as 100%, whereas that luminescence reading for wells containing medium is set as −100%. Compound concentrations leading to half-maximal (IC50) and total growth inhibition (TGI) were determined using standard four parameter curve fitting.

[3] = molecular target: BRD2 (His-Brd2(60-472)) (Homo sapiens (Human), UniProt P25440); test: TR-FRET in-vitro binding assay for BRD2; details: acetyl-histone H4 peptide
BRD2 (His-Brd2(60-472)), sequence (P25440 60-472): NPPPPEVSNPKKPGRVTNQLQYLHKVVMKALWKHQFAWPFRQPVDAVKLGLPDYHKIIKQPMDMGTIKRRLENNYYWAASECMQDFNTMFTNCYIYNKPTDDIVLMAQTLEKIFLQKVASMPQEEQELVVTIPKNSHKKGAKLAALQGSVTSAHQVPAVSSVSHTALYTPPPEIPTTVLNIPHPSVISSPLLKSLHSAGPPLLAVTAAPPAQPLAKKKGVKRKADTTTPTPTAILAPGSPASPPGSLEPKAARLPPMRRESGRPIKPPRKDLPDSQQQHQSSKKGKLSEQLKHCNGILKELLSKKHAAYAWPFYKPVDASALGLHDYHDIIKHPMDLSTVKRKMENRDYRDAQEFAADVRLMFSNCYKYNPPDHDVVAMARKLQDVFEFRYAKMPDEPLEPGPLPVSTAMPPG
Procedure: as §1
(§8) All assays were performed in 384 well microtiter plates. Each assay plate contained 8-point serial dilutions for 40 test compounds, plus 16 high- and 16 low controls. Liquid handling and incubation steps were done on an Innovadyne Nanodrop Express equipped with a robotic arm (Thermo CatX, Perkin Elmer/Caliper Twister II) and an incubator (Liconic STX40, Thermo Cytomat 2C450). The assay plates were prepared by addition of 50 nl per well of compound solution in 90% DMSO HummingBird nanodispenser (Zinsser Analytic). The assay was started by stepwise addition of 4.5 μl per well of bromo domain protein (50 mM HEPES, pH 7.5, 0.005% Tween20, 0.1% BSA, 50 mM NaCl, 45 nM His-Brd2(60-472) or 45 nM His-Brd3(20-477) or 45 nM His-Brd4(44-477) all proteins produced in-house) and 4.5 μl per well of peptide solution (50 mM HEPES, pH 7.5, 0.005% Tween20, 0.1% BSA, 50 mM NaCl, 60 nM acetyl-histone H4 (AcK 5, 8, 12, 16) (Biosyntan GmbH)). Reactions were incubated at 30° C. for 35 minutes. […] After 35 minutes incubation at 30° C., plates were measured in a Perkin Elmer EnVision multilabel reader. Concentrations causing 50% inhibition (IC50 values) were determined from percent inhibition values at different compound concentrations by non-linear regression analysis.
as §2, §3, §4
(§9) Master plates: 30 μL of individual compound dilutions including standard compound and controls of the 4 “pre-dilution plates” were transferred into a 384 “master plate” including the following concentrations 10000, 3003, 1000, 300, 100, 30, 10 and 3 μM, respectively in 90% of DMSO.
(§10) Assay plates: Identical “assay plates” were then prepared by pipetting 50 nL each of compound dilutions of the “master plates” into 384-well “assay plates” by means of a HummingBird 384-channel dispenser. These plates were used directly for the assay which was performed in a total volume of 13.55 μL. This led to a final compound concentration of 37, 11, 3.7, 1.1, 0.37, 0.11, 0.037 and 0.011 μM and a final DMSO concentration of 0.37% in the assay.

[4] = tested on: MV-4-11 cells; test: Cell growth inhibition assay (CellTiter-Glo), MV-4-11; assay type: cell-based, human; details: MV-4-11, 4 days; for GI50: Homo sapiens, MV4-11, 96 h, half-maximal growth inhibition; for MV-4-11 TGI: total growth inhibition
Procedure: as §6, §7

[5] = molecular target: CREBBP bromodomain (His-CREBBP(1081-1197)) (Homo sapiens (Human), UniProt Q92793); test: AlphaScreen in-vitro binding assay for CREBBP; details: AlphaScreen, acetyl-histone H4 peptide; read-out: CREBBP IC50
CREBBP bromodomain (His-CREBBP(1081-1197)), sequence (Q92793 1081-1197): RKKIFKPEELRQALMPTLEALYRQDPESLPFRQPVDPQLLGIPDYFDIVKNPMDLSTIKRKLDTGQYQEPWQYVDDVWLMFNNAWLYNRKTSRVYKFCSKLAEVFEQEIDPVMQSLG
Procedure: AlphaScreen In-Vitro Binding Assay for CREBBP
In order to assess bromodomain selectivity, we set up a binding assay using the bromodomain encoded by the CREBBP gene. […] Reactions were incubated at 30° C. for 35 minutes. Subsequently 4.5 μl per well detection mix (50 mM HEPES, pH 7.5, 0.005% Tween20, 0.02% BSA, 150 mM NaCl, 45 μg/ml Ni-chelate acceptor beads, 45 μg/ml streptavidin-donor beads) (Perkin Elmer)) were added. After 60 minutes incubation at room temperature, plates were measured in a Perkin Elmer EnVision multilabel reader. IC50 values were determined from percent inhibition values at different compound concentrations by non-linear regression analysis.
as §2, §3, §4, §5

[6] = molecular target: BRD4 (His-Brd4(44-477)) (Homo sapiens (Human), UniProt O60885); test: TR-FRET in-vitro binding assay for BRD4; details: acetyl-histone H4 peptide
Procedure: as §1, §8, §2, §3, §4, §9, §10

[7] = tested on: K-562 cells; test: Cell growth inhibition assay (CellTiter-Glo), K-562; assay type: cell-based, human; details: K-562, 4 days; for GI50: Homo sapiens, K562, 96 h, half-maximal growth inhibition; for K-562 TGI: total growth inhibition
Procedure: as §6, §7

BRD3 (His-Brd3(20-477)), sequence (Q15059 20-477): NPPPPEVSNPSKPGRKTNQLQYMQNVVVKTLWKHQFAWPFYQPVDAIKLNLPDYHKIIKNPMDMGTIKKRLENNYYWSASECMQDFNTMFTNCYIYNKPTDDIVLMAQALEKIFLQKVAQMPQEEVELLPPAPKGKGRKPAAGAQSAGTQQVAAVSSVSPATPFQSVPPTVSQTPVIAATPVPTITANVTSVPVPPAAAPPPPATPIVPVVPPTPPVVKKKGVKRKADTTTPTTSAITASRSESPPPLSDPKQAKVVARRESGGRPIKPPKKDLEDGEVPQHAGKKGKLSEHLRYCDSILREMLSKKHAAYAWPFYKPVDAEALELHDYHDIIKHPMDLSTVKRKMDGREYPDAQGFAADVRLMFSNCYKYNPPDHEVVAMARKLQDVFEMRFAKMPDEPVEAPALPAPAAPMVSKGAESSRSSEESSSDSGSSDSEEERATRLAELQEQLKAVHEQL

| IC50 [1] [nM] | GI50 [2] [nM] | IC50 [3] [nM] | GI50 [4] [nM] | IC50 [5] [nM] | IC50 [6] [nM] | GI50 [7] [nM] | Compound | THP-1 TGI [2] [nM] | MV-4-11 TGI [4] [nM] | K-562 TGI [7] [nM] |
| --- | --- | --- | --- | --- | --- | --- | --- | --- | --- | --- |
| 31 | 40.5 | 42 | 17.5 | 12200 | 32 | 106 | COc1ncccc1-c1nn(C)c2c1C(=O)N(c1cc(C)c3nnc(C)n3c1)C2c1ccc(Cl)cc1 (racemic) [Example 12, 6-(4-chlorophenyl)-5-(3,8-dimethyl-[1,2,4]triazolo[4,3-a]pyridin-6-yl)-3-(2-methoxypyridin-3-yl)-1-methyl-5,6-dihydropyrrolo[3,4-c]pyrazol-4(1H)-one] | 97.35 | 37.8 | >10000 |
| < 11 | 1.88 | < 11 | 0.643 | 19200 | < 11 | 10.4 | Cc1cc(N2C(=O)c3c(C4CC4)nn(C)c3[C@H]2c2ccc(Cl)cc2)nn2c(C)nnc12 [Example 24, (R)-6-(4-chlorophenyl)-3-cyclopropyl-5-(3,8-dimethyl-[1,2,4]triazolo[4,3-b]pyridazin-6-yl)-1-methyl-5,6-dihydropyrrolo[3,4-c]pyrazol-4(1H)-one] | 4.91 | 1.57 | >10000 |
| 22 | 28.4 | 34 | 14.2 | 5400 | 24 | 96.5 | COc1ncccc1-c1nn(C)c2c1C(=O)N(c1cc(C)c3nnc(C)n3c1)[C@@H]2c1ccc(Cl)cc1 [Example 13, (R)-6-(4-chlorophenyl)-5-(3,8-dimethyl-[1,2,4]triazolo[4,3-a]pyridin-6-yl)-3-(2-methoxypyridin-3-yl)-1-methyl-5,6-dihydropyrrolo[3,4-c]pyrazol-4(1H)-one] | 64.65 | 29.8 | >10000 |
| 23 | 22.3 | 31 | 13.5 | 6600 | 17 | 78.8 | Cc1cc(N2C(=O)c3c(C4CC4)nn(-c4ccnn4C)c3C2c2ccc(Cl)cc2)cc2c1nnn2C (stereo not shown) [Example 21, 6-(4-chlorophenyl)-3-cyclopropyl-5-(1,4-dimethyl-1H-benzo[d][1,2,3]triazol-6-yl)-1-(1-methyl-1H-pyrazol-5-yl)-5,6-dihydropyrrolo[3,4-c]pyrazol-4(1H)-one] | 44.45 | 27.25 | >10000 |
| 12 | 20.9 | 13 | 6.47 | 7900 | 15 | 96 | Cc1cc(N2C(=O)c3c(C4CC4)nn(C[C@H](O)C(F)(F)F)c3[C@H]2c2ccc(Cl)cc2)cn2c(C)nnc12 [Example 20, (R)-6-(4-chlorophenyl)-3-cyclopropyl-5-(3,8-dimethyl-[1,2,4]triazolo[4,3-a]pyridin-6-yl)-1-((S)-3,3,3-trifluoro-2-hydroxypropyl)-5,6-dihydropyrrolo[3,4-c]pyrazol-4(1H)-one] | 44.7 | 16.1 | >10000 |

| Compound | IC50 [1] [nM] | GI50 [2] [nM] | IC50 [3] [nM] | GI50 [4] [nM] | IC50 [5] [nM] | IC50 [6] [nM] | GI50 [7] [nM] | THP-1 TGI [2] [nM] | MV-4-11 TGI [4] [nM] | K-562 TGI [7] [nM] |
| --- | --- | --- | --- | --- | --- | --- | --- | --- | --- | --- |
| COc1cc(N2C(=O)c3c(C4CC4)nn(C)c3[C@H]2c2ccc(Cl)cc2)cn2c(C)nnc12 [Example 14, (R)-6-(4-chlorophenyl)-3-cyclopropyl-5-(8-methoxy-3-methyl-[1,2,4]triazolo[4,3-a]-pyridin-6-yl)-1-methyl-5,6-dihydropyrrolo[3,4-c]pyrazol-4(1H)-one] | 55 | 51.4 | 57 | 20.1 | 27500 | 30 | 152 | 118.5 | 39.55 | >10000 |
| COCCn1nc(C2CC2)c2c1[C@@H](c1ccc(Cl)cc1)N(c1cc(C)c3nnc(C)n3c1)C2=O [Example 15, (R)-6-(4-chlorophenyl)-3-cyclopropyl-5-(3,8-dimethyl-[1,2,4]triazolo[4,3-a]pyridin-6-yl)-1-(2-methoxyethyl)-5,6-dihydropyrrolo[3,4-c]pyrazol-4(1H)-one] | 16 | 6.42 | 20 | 2.41 | 6100 | 18 | 26.5 | 13.9 | 5.79 | >10000 |
